Experimental data as given in US9593305B2, “Differentiation of pluripotent stem cells” (Janssen Biotech, Inc., priority 2008, dated 2017).

System: H1 human embryonic stem cells
Assay: Step-wise differentiation, RT-PCR of differentiation markers (Example 17, Table 15)
Type: cell-based
Protocol: Stock cultures of human embryonic stem cells (H1 human embryonic stem cell line) were maintained in an undifferentiated, pluripotent state on reduced growth factor […]™ (BD Biosciences; Cat #356231)-coated dishes in MEF conditioned medium supplemented with 8 ng/ml bFGF (PeproTech Inc.; Cat #100-18B) with passage on average every four days. Passage was performed by exposing cell cultures to a solution of 1 mg/ml dispase (Invitrogen; Cat #17105-041) for 5 to 7 minutes at 37° C. followed by rinsing the monolayer with MEF conditioned culture medium and gentle scraping to recover cell clusters. Clusters were centrifuged at low speed to collect a cell pellet and remove residual dispase. Cell clusters were split at a 1:3 or 1:4 ratio for routine maintenance culture or a 1:1 ratio for immediate assay. All human ES cell lines were maintained at passage numbers less than 50 and routinely evaluated for normal karyotype and absence of mycoplasma.
Cell clusters were evenly resuspended in MEF conditioned medium supplemented with 8 ng/ml bFGF and plated onto reduced growth factor […]™-coated 24-well, black wall culture plates (Arctic White; Cat #AWLS-303012) in volumes of 0.5 ml/well. Daily feeding was conducted by aspirating spent culture medium from each well and replacing with an equal volume of fresh medium. Plates were maintained at 37° C., 5% CO2 throughout assay.
The assay was initiated by aspirating the culture medium from each well and adding back an aliquot (0.5 ml) of test medium. Test conditions for the first step of differentiation were conducted over a three-day period, feeding daily by aspirating and replacing the medium from each well with fresh test medium. On the first day of assay, 100 ng/ml activin A (PeproTech; Cat #120-14) or 100 ng/ml GDF-8 (R&D Systems, Cat #788-G8) was added to respective assay wells where each growth factor was diluted into RPMI-1640 medium (Invitrogen; Cat #: 22400) with 2% Albumin Bovine Fraction V, Fatty Acid Free (FAF BSA) (MP Biomedicals, Inc; Cat #152401). In some samples, 20 ng/ml Wnt3a (R&D Systems; Cat #1324-WN/CF) was also included. On the second day of assay, 100 ng/mlactivin A or 100 ng/ml GDF-8 was diluted into RPMI-1640 medium supplemented with 2% FAF BSA, omitting Wnt3a from all samples. In some test samples using GDF-8, Wnt3a was replaced with a given concentration of small molecule compound, added only on the first day of definitive endoderm differentiation. […] At the conclusion of the first step of differentiation, cells from some wells were harvested for flow cytometry analysis to evaluate levels of CXCR4, a marker of definitive endoderm formation. Additional wells were harvested for RT-PCR analysis to measure other markers of differentiation.
At the conclusion of the first step of definitive endoderm differentiation, replicate sets of parallel wells from each treatment group were subjected to further step-wise differentiation. It is important to note that after the first differentiation step, all wells undergoing subsequent culture and differentiation received the same treatment. The protocol for this continuing differentiation is described below.
Step 2 of the differentiation protocol was carried out over two days. Cells were fed daily by aspirating the medium from each well and replacing with a fresh aliquot (0.5 ml) of DMEM:F12 medium (Invitrogen; Cat #11330-032) containing 2% FAF BSA, 50 ng/ml FGF7 (PeproTech; Cat #100-19), and 250 nM cyclopamine-KAAD (Calbiochem; Cat #239804).
Step 3 of the differentiation protocol was carried out over four days. […]

[1] = Step 5, cells harvested at end of step, treatment given during step one

GDF-8: growth factor GDF-8, also known as myostatin, member of the TGF-β family
RT-PCR CT Values AFP (Step 1): 40.0 | RT-PCR CT Values CD9 (Step 1): 25.5 | RT-PCR CT Values CD99 (Step 1): 25.9 | RT-PCR CT Values CDH (Step 1): 22.3 | RT-PCR CT Values CDH1 (Step 1): 25.2 | RT-PCR CT Values CDX2 (Step 1): 40.0 | RT-PCR CT Values CER1 (Step 1): 20.1 | RT-PCR CT Values CXCR4 (Step 1): 24.6 | RT-PCR CT Values FGF4 (Step 1): 34.9 | RT-PCR CT Values FGF17 (Step 1): 22.1 | RT-PCR CT Values FOXA2 (Step 1): 25.9 | RT-PCR CT Values GAPDH (Step 1): 21.6 | RT-PCR CT Values GATA4 (Step 1): 27.5 | RT-PCR CT Values GATA6 (Step 1): 24.8 | RT-PCR CT Values GSC (Step 1): 24.2 | RT-PCR CT Values HLXB9 (Step 1): 25.3 | RT-PCR CT Values KIT (Step 1): 25.4 | RT-PCR CT Values MIXL1 (Step 1): 30.6 | RT-PCR CT Values NANOG (Step 1): 25.0 | RT-PCR CT Values OTX2 (Step 1): 24.3 | RT-PCR CT Values POU5F1 (Step 1): 29.5 | RT-PCR CT Values SOX7 (Step 1): 29.8 | RT-PCR CT Values SOX17 (Step 1): 25.2 | RT-PCR CT Values T (Step 1): 32.9 | RT-PCR CT Values ALB (Step 3): 28.7 | RT-PCR CT Values AMY2A (Step 3): 30.4 | RT-PCR CT Values ARX (Step 3): 35.3 | RT-PCR CT Values CDX2 (Step 3): 23.8 | RT-PCR CT Values GAPDH (Step 3): 18.0 | RT-PCR CT Values GCG (Step 3): 40.0 | RT-PCR CT Values HNF4A (Step 3): 23.6 | RT-PCR CT Values INS (Step 3): 40.0 | RT-PCR CT Values ISL1 (Step 3): 28.5 | RT-PCR CT Values MAFA (Step 3): 33.6 | RT-PCR CT Values MAFB (Step 3): 27.2 | RT-PCR CT Values NEUROD1 (Step 3): 30.3 | RT-PCR CT Values NEUROG3 (Step 3): 28.7 | RT-PCR CT Values NKX2-2 (Step 3): 30.3 | RT-PCR CT Values NKX2-5 (Step 3): 34.4 | RT-PCR CT Values NKX6-1 (Step 3): 35.0 | RT-PCR CT Values PAX4 (Step 3): 32.4 | RT-PCR CT Values PAX6 (Step 3): 24.8 | RT-PCR CT Values PDX1 (Step 3): 25.5 | RT-PCR CT Values PECAM (Step 3): 30.0 | RT-PCR CT Values POU3F4 (Step 3): 30.8 | RT-PCR CT Values PTF1A (Step 3): 34.2 | RT-PCR CT Values SST (Step 3): 29.5 | RT-PCR CT Values ZIC1 (Step 3): 26.1 | RT-PCR CT Values ALB (Step 4): 25.5 | RT-PCR CT Values AMY2A (Step 4): 29.1 | RT-PCR CT Values ARX (Step 4): 29.8 | RT-PCR CT Values CDX2 (Step 4): 24.6 | RT-PCR CT Values GAPDH (Step 4): 18.0 | RT-PCR CT Values GCG (Step 4): 31.3 | RT-PCR CT Values HNF4A (Step 4): 23.8 | RT-PCR CT Values INS (Step 4): 30.9 | RT-PCR CT Values ISL1 (Step 4): 27.6 | RT-PCR CT Values MAFA (Step 4): 32.8 | RT-PCR CT Values MAFB (Step 4): 24.1 | RT-PCR CT Values NEUROD1 (Step 4): 29.2 | RT-PCR CT Values NEUROG3 (Step 4): 28.7 | RT-PCR CT Values NKX2-2 (Step 4): 29.0 | RT-PCR CT Values NKX2-5 (Step 4): 32.3 | RT-PCR CT Values NKX6-1 (Step 4): 31.2 | RT-PCR CT Values PAX4 (Step 4): 31.1 | RT-PCR CT Values PAX6 (Step 4): 27.9 | RT-PCR CT Values PDX1 (Step 4): 26.5 | RT-PCR CT Values PECAM (Step 4): 29.4 | RT-PCR CT Values POU3F4 (Step 4): 29.4 | RT-PCR CT Values PTF1A (Step 4): 40.0 | RT-PCR CT Values SST (Step 4): 26.0 | RT-PCR CT Values ZIC1 (Step 4): 22.8 | RT-PCR CT Values ALB (Step 5): 20.5 | RT-PCR CT Values AMY2A (Step 5): 28.2 | RT-PCR CT Values ARX (Step 5): 25.2 | RT-PCR CT Values CDX2 (Step 5): 24.4 | RT-PCR CT Values GAPDH (Step 5): 17.4 | RT-PCR CT Values GCG (Step 5): 18.1 | RT-PCR CT Values HNF4A (Step 5): 22.9 | RT-PCR CT Values INS (Step 5): 17.7 | RT-PCR CT Values ISL1 (Step 5): 24.3 | RT-PCR CT Values MAFA (Step 5): 31.8 | RT-PCR CT Values MAFB (Step 5): 23.3 | RT-PCR CT Values NEUROD1 (Step 5): 24.2 | RT-PCR CT Values NEUROG3 (Step 5): 30.1 | RT-PCR CT Values NKX2-2 [1]: 25.9 CT | RT-PCR CT Values NKX2-5 [1]: 31.4 CT | RT-PCR CT Values NKX6-1 [1]: 26.6 CT | RT-PCR CT Values PAX4 [1]: 29.4 CT | RT-PCR CT Values PAX6 [1]: 26.6 CT | RT-PCR CT Values PDX1 [1]: 25.6 CT | RT-PCR CT Values PECAM [1]: 29.7 CT | RT-PCR CT Values POU3F4 [1]: 27.8 CT | RT-PCR CT Values PTF1A [1]: 29.5 CT | RT-PCR CT Values SST [1]: 21.1 CT | RT-PCR CT Values ZIC1 [1]: 22.5 CT
